Tested on: PC3 tumours
Assay: PC3 prostate xenograft model
Type: in vivo, nude mice
Experimental: In the orthotopic Hep3b2.1-7 human liver cancer model, treatment of mice (n=10) began 14 days after inoculation of 2.5 × 10^6 cells. […] To initiate tumour xenografts, MDA-MB-231, PC3, Cal27 and HepG2 cells were injected s.c. into nude mice (n=8) at 4, 5, 2 and 2 × 10^7 cells ml^−1, respectively. […] In the B16F0 lung metastasis model, 2 × 10^5 cells were injected via the tail vein of C57Bl6 mice (n=8). […] Surface lung macrometastases were counted for each group (n=9) upon study termination. In the intrasplenic HT-29 xenograft model, 1 × 10^6 cells in 100 μl were injected into the spleen. […] Solid tumours were measured in two dimensions (length and width) and the tumour volume (cm^3) was calculated using the equation: V=length × width^2 × π/6. The anti-tumour activity was expressed as percent tumour growth inhibition (%TGI). Further details are available in Supplementary Methods. […]
antibody. […]
staining. For quantification, three independent visual fields (20x magnification) were chosen and positive stained spots or vessels with identifiable lumen were counted.
Angiogenesis inhibition and induction were calculated using the equations: […]
regimen both before and after tumour cell inoculation (days -6, -3, 0, +3, +6) or only after tumour cell inoculation (days 0, +3, +6). B16 cell (2x105) were inoculated via tail vein injections and mice were culled and assessed for lung metastases on day 12. […]

## CC(C)CCC[C@@H](C)[C@H]1CCC2C3CCC4C[C@@H](O[C@@H]5O[C@H](COS(=O)(=O)[O-])[C@@H](O[C@H]6O[C@H](COS(=O)(=O)[O-])[C@@H](O[C@H]7O[C@H](COS(=O)(=O)[O-])[C@@H](O[C@H]8O[C@H](COS(=O)(=O)[O-])[C@@H](OS(=O)(=O)[O-])[C@H](OS(=O)(=O)[O-])[C@H]8OS(=O)(=O)[O-])[C@H](OS(=O)(=O)[O-])[C@H]7OS(=O)(=O)[O-])[C@H](OS(=O)(=O)[O-])[C@H]6OS(=O)(=O)[O-])[C@H](OS(=O)(=O)[O-])[C@H]5OS(=O)(=O)[O-])CC[C@]4(C)C3CC[C@@]21C.[Na+].[Na+].[Na+].[Na+].[Na+].[Na+].[Na+].[Na+].[Na+].[Na+].[Na+].[Na+].[Na+] (some centres unmarked) [PG545]
20 mg kg^−1 once-weekly s.c.
  TGI: 74%
20 mg kg^−1 twice-weekly s.c.
  TGI: 83%

From article PMC3049593 (British Journal of Cancer, 2011)
